PubChem BioAssay AID248 (DTP/NCI, 2004)
Where “and” joins values, the source holds several entries; their conditions need not be identical. Equal values may be shown once. Inconclusive results and toxic doses are left out. No stated cut-off is given here; in the data, active means T/C of 150% or more; inactive means T/C below 125%.

Tested on: L1210 leukemia ip in BDF1 mice, survival T/C
Test: NCI In Vivo Anticancer Drug Screen. Data for tumor model L1210 Leukemia (intraperitoneal) in B6D2F1 (BDF1) mice
Settings: endpoint: mean survival time, higher = longer survival
How it was run: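 Ratio derived from survival: compound-dosed mice over vehicle-dosed mice, all bearing a transplantable tumor.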

[1] = dose: 50.0 mg/kg/injection, schedule: Q01DX009 (ip), vehicle: saline with Tween-80
[2] = dose: 100.0 mg/kg/injection, schedule: Q01DX009 (ip), vehicle: saline with Tween-80
[3] = dose: 200.0 mg/kg/injection, schedule: Q01DX009 (ip), vehicle: saline with Tween-80
[4] = dose: 100.0 mg/kg/injection, schedule: Q04DX003 (ip), vehicle: Klucel (hydroxypropylcellulose) (HPC)
[5] = dose: 200.0 mg/kg/injection, schedule: Q04DX003 (ip), vehicle: Klucel (hydroxypropylcellulose) (HPC)
[6] = dose: 400.0 mg/kg/injection, schedule: Q04DX003 (ip), vehicle: Klucel (hydroxypropylcellulose) (HPC)
[7] = dose: 100.0 mg/kg/injection, schedule: Q01DX009 (ip), vehicle: Klucel (hydroxypropylcellulose) (HPC)
[8] = dose: 100.0 mg/kg/injection, schedule: Q04DX003 (ip), vehicle: saline with Tween-80
[9] = dose: 200.0 mg/kg/injection, schedule: Q04DX003 (ip), vehicle: saline with Tween-80
[10] = dose: 400.0 mg/kg/injection, schedule: Q04DX003 (ip), vehicle: saline with Tween-80
[11] = dose: 100.0 mg/kg/injection, schedule: Q01DX001 (ip), vehicle: saline
[12] = dose: 200.0 mg/kg/injection, schedule: Q01DX001 (ip), vehicle: saline
[13] = dose: 400.0 mg/kg/injection, schedule: Q01DX001 (ip), vehicle: saline
[14] = dose: 10.0 mg/kg/injection, schedule: Q01DX001 (ip), vehicle: saline
[15] = dose: 20.0 mg/kg/injection, schedule: Q01DX001 (ip), vehicle: saline
[16] = dose: 40.0 mg/kg/injection, schedule: Q01DX001 (ip), vehicle: saline
[17] = dose: 75.0 mg/kg/injection, schedule: Q01DX001 (ip), vehicle: saline
[18] = dose: 150.0 mg/kg/injection, schedule: Q01DX001 (ip), vehicle: saline

Measured: T/C

CC1=C(C)Cc2c(OC(=O)c3ccccc3)ccc(OC(=O)c3ccccc3)c2C1
inactive: dose: 3.12 mg/kg/injection, schedule: Q01DX009 (ip), vehicle: water 101 % of control | dose: 6.25 mg/kg/injection, schedule: Q01DX009 (ip), vehicle: water 101 % of control | dose: 12.5 mg/kg/injection, schedule: Q01DX009 (ip), vehicle: water 96 % of control | dose: 25.0 mg/kg/injection, schedule: Q01DX009 (ip), vehicle: water 98 % of control and 119 % of control | dose: 50.0 mg/kg/injection, schedule: Q01DX009 (ip), vehicle: water 101 % of control | dose: 100.0 mg/kg/injection, schedule: Q01DX009 (ip), vehicle: water 90 % of control | dose: 200.0 mg/kg/injection, schedule: Q01DX009 (ip), vehicle: water 90 % of control | dose: 400.0 mg/kg/injection, schedule: Q01DX009 (ip), vehicle: water 97 % of control

COc1ccccc1-n1c(O)c(N=Nc2ccccc2C)c(=O)n(-c2ccc(I)cc2)c1=S
inactive: dose: 37.5 mg/kg/injection, schedule: Q01DX001 (ip), vehicle: Klucel (hydroxypropylcellulose) (HPC) 89 % of control | dose: 75.0 mg/kg/injection, schedule: Q01DX001 (ip), vehicle: Klucel (hydroxypropylcellulose) (HPC) 92 % of control | dose: 150.0 mg/kg/injection, schedule: Q01DX001 (ip), vehicle: Klucel (hydroxypropylcellulose) (HPC) 97 % of control

COc1ccc(C(C)(C)CC(=O)O)cc1
inactive: [1] 97 % of control | [2] 100 % of control | [3] 90 % of control

O=c1cc(Sc2ccccc2)[nH]c(=O)[nH]1
inactive: [4] 96 % of control | [5] 105 % of control | [6] 102 % of control

O=C1CC(N2CC2)C(=O)N1c1ccccc1 (centres undefined)
inactive: [7] 104 % of control | [4] 105 % of control | dose: 200.0 mg/kg/injection, schedule: Q01DX009 (ip), vehicle: Klucel (hydroxypropylcellulose) (HPC) 92 % of control | [5] 113 % of control | [6] 88 % of control

NCC(=O)c1ccc(OC(=O)c2ccccc2)cc1
inactive: [2] 92 % of control | [8] 95 % of control | [3] 94 % of control | [9] 95 % of control | dose: 400.0 mg/kg/injection, schedule: Q01DX009 (ip), vehicle: saline with Tween-80 103 % of control | [10] 96 % of control

CC12CCC(C3=C1OC(=O)C(c1ccccc1)(c1ccccc1)C3=O)C2(C)C (centres undefined)
inactive: [11] 105 % of control | dose: 100.0 mg/kg/injection, schedule: Q01DX009 (ip), vehicle: saline 94 % of control | dose: 100.0 mg/kg/injection, schedule: Q04DX003 (ip), vehicle: saline 103 % of control | [12] 113 % of control | dose: 200.0 mg/kg/injection, schedule: Q01DX009 (ip), vehicle: saline 102 % of control | dose: 200.0 mg/kg/injection, schedule: Q04DX003 (ip), vehicle: saline 97 % of control | [13] 97 % of control | dose: 400.0 mg/kg/injection, schedule: Q01DX009 (ip), vehicle: saline 100 % of control | dose: 400.0 mg/kg/injection, schedule: Q04DX003 (ip), vehicle: saline 103 % of control

[N-]=[N+]=Nc1nc2c(N)ncnc2n1C1OC(CO)C(O)C1O (centres undefined)
inactive: dose: 25.0 mg/kg/injection, schedule: Q01DX001 (ip), vehicle: saline 102 % of control | dose: 50.0 mg/kg/injection, schedule: Q01DX001 (ip), vehicle: saline 105 % of control | [11] 103 % of control

CC(C)(C)OC(=O)N1C2C=CC(C2)N1C(=O)OC(C)(C)C
inactive: dose: 100.0 mg/kg/injection, schedule: Q01DX001 (ip), vehicle: other 101 % of control | [4] 102 % of control | dose: 200.0 mg/kg/injection, schedule: Q01DX001 (ip), vehicle: other 104 % of control | [5] 98 % of control | dose: 400.0 mg/kg/injection, schedule: Q01DX001 (ip), vehicle: other 96 % of control | [6] 109 % of control

CCCCCCCCc1ccccc1
inactive: dose: 100.0 mg/kg/injection, schedule: Q04DX002 (ip), vehicle: saline 99 % of control | dose: 200.0 mg/kg/injection, schedule: Q04DX002 (ip), vehicle: saline 96 % of control | dose: 400.0 mg/kg/injection, schedule: Q04DX002 (ip), vehicle: saline 99 % of control

NCNc1nc(NCN)nc(N(CN)CN)n1
inactive: [8] 92 % of control | [9] 88 % of control | [10] 88 % of control

CCOC(=O)NC#N (tested in a mixture with another compound)
inactive: [14] 98 % of control | [15] 102 % of control | [16] 102 % of control

C=CCOP(=O)(N1CC1CC)N1CC1CC (centres undefined)
inactive: dose: 10.0 mg/kg/injection, schedule: Q01DX015 (ip), vehicle: saline 103 % of control | dose: 20.0 mg/kg/injection, schedule: Q01DX015 (ip), vehicle: saline 96 % of control | dose: 40.0 mg/kg/injection, schedule: Q01DX015 (ip), vehicle: saline 102 % of control | dose: 80.0 mg/kg/injection, schedule: Q01DX015 (ip), vehicle: saline 108 % of control

CCCCCCCCCC(N)=O
inactive: dose: 50.0 mg/kg/injection, schedule: Q01DX009 (ip), vehicle: Klucel (hydroxypropylcellulose) (HPC) 97 % of control | dose: 100.0 mg/kg/injection, schedule: Q01DX001 (ip), vehicle: Klucel (hydroxypropylcellulose) (HPC) 110 % of control | [7] 90 % of control | dose: 200.0 mg/kg/injection, schedule: Q01DX001 (ip), vehicle: Klucel (hydroxypropylcellulose) (HPC) 100 % of control | dose: 400.0 mg/kg/injection, schedule: Q01DX001 (ip), vehicle: Klucel (hydroxypropylcellulose) (HPC) 93 % of control

O=C1Cc2ncccc2N1
inactive: [11] 107 % of control | [12] 100 % of control | [13] 114 % of control

Nc1nc(C=O)c(CCc2ccccc2)c(=O)[nH]1
inactive: [8] 100 % of control | [9] 97 % of control

CN(C)CCCN(CCCN(C)C)Cc1ccccc1
inactive: [17] 104 % of control | [18] 97 % of control

CCOP(=O)(OCC)C(CC=C(C)C)C(C)=O (centres undefined)
inactive: [1] 100 % of control | [2] 94 % of control | [3] 88 % of control

CC(C)(C)NC(=O)Nc1ccc(Cl)c(Cl)c1
inactive: [11] 97 % of control | [12] 100 % of control | [13] 95 % of control

Clc1ccccc1C=C1c2ccccc2-c2ccccc21
inactive: [4] 103 % of control | [5] 100 % of control | [6] 96 % of control

[Br][Ge]([c]1ccccc1)([c]1ccccc1)[c]1ccccc1
inactive: dose: 25.0 mg/kg/injection, schedule: Q04DX002 (ip), vehicle: saline with Tween-80 104 % of control | dose: 50.0 mg/kg/injection, schedule: Q04DX002 (ip), vehicle: saline with Tween-80 96 % of control | dose: 100.0 mg/kg/injection, schedule: Q04DX002 (ip), vehicle: saline with Tween-80 104 % of control | [8] 94 % of control | dose: 200.0 mg/kg/injection, schedule: Q04DX002 (ip), vehicle: saline with Tween-80 93 % of control | [9] 94 % of control | [10] 90 % of control

Cc1ccc(Nc2ccc(Nc3ccc(C)cc3)c3c2C(=O)c2ccccc2C3=O)cc1
inactive: [8] 86 % of control | [9] 87 % of control | [10] 92 % of control

Cc1noc(NS(=O)(=O)c2ccc(N=NC3SC(=S)NC3=O)cc2)c1C (centres undefined)
inactive: [17] 95 % of control | [18] 98 % of control | dose: 300.0 mg/kg/injection, schedule: Q01DX001 (ip), vehicle: saline 101 % of control

N#CSCC(=O)OC1CCCCC1
inactive: dose: 5.0 mg/kg/injection, schedule: Q01DX001 (ip), vehicle: saline 98 % of control | [14] 96 % of control | [15] 96 % of control | [16] 93 % of control

O=[N+]([O-])c1ccccc1CC1=NCCc2cc3c(cc21)OCO3
inactive: [11] 100 % of control | [12] 102 % of control | [13] 104 % of control

N#Cc1ccc(-c2ccc(N)cc2)cc1
inactive: dose: 50.0 mg/kg/injection, schedule: Q01DX001 (ip), vehicle: carboxymethylcellulose (CMC) 88 % of control | dose: 100.0 mg/kg/injection, schedule: Q01DX001 (ip), vehicle: carboxymethylcellulose (CMC) 90 % of control | dose: 200.0 mg/kg/injection, schedule: Q01DX001 (ip), vehicle: carboxymethylcellulose (CMC) 88 % of control | dose: 400.0 mg/kg/injection, schedule: Q01DX001 (ip), vehicle: carboxymethylcellulose (CMC) 90 % of control
